From PMC6718442, “11β-Hydroxysteroid dehydrogenases control access of 7β,27-dihydroxycholesterol to retinoid-related orphan receptor γ” (Journal of Lipid Research, 2019)
Values joined by “and” are separate entries in the source; they are usually repeats but may differ in a detail not shown here. Identical values can stand only once.

Legend:
mouse 11β-hsd1 = molecular target: T1, mouse 11β-hsd1 (Mus musculus, UniProt P50172); experiment: Inhibition of murine 11β-hsd1-dependent oxoreduction of cortisone in HEK-293 cell lysates; format: biochemical; settings: for IC50: mouse ortholog, 200 nM cortisone, 10 min, 37°C, read-out: IC50, mouse 11β-hsd1-dependent conversion of cortisone to cortisol
T1 construct: expressed in transfected cells; host or cells: HEK-293
Protocol: (§1) 11β-HSD1 and 11β-HSD2 enzyme activities were assessed in lysates of HEK-293 cells stably expressing the respective enzyme as reported earlier ([40]). Briefly, 11β-HSD1-dependent oxoreductase activity was determined by the incubation of lysates with 200 nM of radiolabeled cortisone, 500 μM of NADPH, and the test substance or vehicle for 10 min at 37°C. 11β-HSD2-dependent oxidation of cortisol was measured instead by the addition of 50 nM of radiolabeled cortisol and 500 μM of NAD^+. The enzymatic reaction was stopped by introducing an excess amount of unlabeled cortisone and cortisol (1:1, 2 mM unlabeled each, in methanol). Cortisone and cortisol were separated using TLC and a chloroform and methanol (9:1, v/v) mixture. The bands were detected under UV light, scraped off the plate, and metabolism of the radiolabeled substrate was then evaluated by scintillation counting and the substrate conversion determined and compared with the control sample. Data (mean ± SD) were normalized to the control (DMSO) sample and obtained from at least three independent experiments.

human 11β-HSD1 = molecular target: T2, human 11β-HSD1 (Homo sapiens, UniProt P28845); experiment: 11β-HSD1-dependent metabolism of 7-oxygenated 27OHCs in intact HEK-293 cells expressing 11β-HSD1 and H6PDH; format: cell-based; settings: for Metabolism by 11β-HSD1 in intact cells (in words): 1 μM substrate, 60 min
T2 construct: expressed in transfected cells
Protocol: (§2) Fifty thousand stably transfected HEK-293 cells expressing either 11β-HSD2 [clone AT8 ([34])] or 11β-HSD1 and hexose-6-phosphate dehydrogenase (H6PDH) [clone HHH7 ([35])] were seeded in poly-L-lysine-coated 96-well plates and incubated for 24 h. H6PDH provides the cofactor NADPH and is required for an efficient oxoreduction reaction by 11β-HSD1 ([36]). The medium was changed to steroid- and phenol red-free DMEM (DMEM SF) for another 2 h and the cells were then treated with 1 μM of 7k27OHC in the presence or absence of 1 μM of T0504 (to inhibit 11β-HSD1) or 0.5 μM of 7β27OHC or 7α27OHC in the presence or absence of 5 μM of glycyrrhetinic acid (GA) (to inhibit 11β-HSD2). Metabolic conversion was determined after 0.5 h for 11β-HSD2 and after 1 h for 11β-HSD1.
(§3) Ice-cold acetonitrile:isopropanol (7:3, v/v) mixture containing either 100 nM deuterium-labeled 7β27OHC or corticosterone as internal standards were used to extract oxysterols from cell culture supernatants. Additionally, 1.5% (v/v) of a standard solution of the antioxidant butylated hydroxytoluene (BHT) and the peroxide reducing agent triphenylphosphine (TPP) (10 mg BHT and 25 mg TPP in 10 ml ethanol) was added ([37]). In experiments with SW-620 cells, oxysterols were extracted from cell supernatants and cells. The samples were incubated for 30 min at 4°C and 700 rotations per minute, centrifuged (16,000 g, 10 min, 4°C), and the supernatant evaporated to dryness under nitrogen to minimize oxidation from atmospheric oxygen. After reconstitution in 50 μl of methanol:ultra-pure water (1:1, v/v), the samples were again centrifuged (16,000 g, 10 min, 4°C) and the supernatants analyzed. Data (mean ± SD) were obtained from three independent experiments.
An Agilent 1290 Infinity UHPLC binary solvent delivery system including a temperature controlled autosampler and a column oven coupled to an Agilent 6490 triple quadrupole mass spectrometer with a jet stream electrospray ionization interface (AJS-ESI) (Agilent Technologies) was used to analyze oxysterols. A reversed-phase column (ACQUITY UPLC BEH C18, 1.7 μm, 2.1 × 150 mm; Waters, Wexford, Ireland) heated to 65 ± 0.8°C was applied for analyte separation. The flow-rate was 0.5 ml with solvent A [water/acetonitrile/formic acid (95/5/0.1, v/v/v)] and solvent B [water/acetonitrile/formic acid (5/95/0.1, v/v/v)]. The eluent gradient was set as follows: 0–4.5 min 45–97% B, 4.5–7 min 80% B (washout), and 7–9 min 45% B (column re-equilibration). Methanol/water (75/25, v/v) was used as needle and needle-seat flushing solvent for 10 s after sample aspiration. The samples were stored in the autosampler at 4°C until analysis. […]

11β-HSD2 [1] = molecular target: T3, 11β-HSD2 (Homo sapiens, UniProt P80365); experiment: Inhibition of 11β-HSD2-dependent oxidation of cortisol in HEK-293 cell lysates; format: biochemical; settings: for IC50: human enzyme, 50 nM cortisol, 10 min, 37°C, read-out: IC50, 11β-HSD2-dependent conversion of cortisol to cortisone
T3 construct: expressed in transfected cells
T3 sequence (P80365 1-405): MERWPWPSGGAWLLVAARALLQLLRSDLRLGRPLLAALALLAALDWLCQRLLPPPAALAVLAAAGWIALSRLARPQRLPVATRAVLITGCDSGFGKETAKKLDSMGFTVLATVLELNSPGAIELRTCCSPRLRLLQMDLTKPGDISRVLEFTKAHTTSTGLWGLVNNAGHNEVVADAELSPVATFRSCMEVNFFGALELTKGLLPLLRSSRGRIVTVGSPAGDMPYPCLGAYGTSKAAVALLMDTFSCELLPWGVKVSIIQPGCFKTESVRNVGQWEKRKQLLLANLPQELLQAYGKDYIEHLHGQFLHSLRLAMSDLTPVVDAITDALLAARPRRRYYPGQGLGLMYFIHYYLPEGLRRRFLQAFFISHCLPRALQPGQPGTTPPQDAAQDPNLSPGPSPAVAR
Protocol: as §1

11β-HSD2 [2] = molecular target: T3, 11β-HSD2; experiment: 11β-HSD2-dependent metabolism of 7-oxygenated 27OHCs in intact HEK-293 cells expressing 11β-HSD2; format: cell-based; settings: for Metabolism by 11β-HSD2 in intact cells (in words): 500 nM substrate, 30 min
Protocol: as §2, §3
An Agilent 1290 Infinity UHPLC binary solvent delivery system including a temperature controlled autosampler and a column oven coupled to an Agilent 6490 triple quadrupole mass spectrometer with a jet stream electrospray ionization interface (AJS-ESI) (Agilent Technologies) was used to analyze oxysterols. […]

T2 sequence (P28845 whole entry): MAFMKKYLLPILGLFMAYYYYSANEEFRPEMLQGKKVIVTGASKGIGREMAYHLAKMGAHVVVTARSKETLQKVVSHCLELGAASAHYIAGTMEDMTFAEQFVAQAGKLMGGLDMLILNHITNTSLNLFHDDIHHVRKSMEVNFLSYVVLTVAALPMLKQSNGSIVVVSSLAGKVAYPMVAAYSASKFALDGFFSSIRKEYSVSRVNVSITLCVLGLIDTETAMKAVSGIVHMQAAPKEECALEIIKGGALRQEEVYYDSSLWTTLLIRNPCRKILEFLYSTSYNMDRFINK
T1 sequence (P50172 whole entry): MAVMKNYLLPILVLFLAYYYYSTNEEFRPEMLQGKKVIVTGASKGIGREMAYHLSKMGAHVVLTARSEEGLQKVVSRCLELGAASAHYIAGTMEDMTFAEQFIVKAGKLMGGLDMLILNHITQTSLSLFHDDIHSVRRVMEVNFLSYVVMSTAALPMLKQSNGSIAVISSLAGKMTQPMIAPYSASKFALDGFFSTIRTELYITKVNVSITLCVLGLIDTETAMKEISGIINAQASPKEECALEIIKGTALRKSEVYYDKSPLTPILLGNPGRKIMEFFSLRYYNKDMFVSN

## CC(CO)CCC[C@@H](C)[C@H]1CC[C@H]2[C@@H]3C(=O)C=C4C[C@@H](O)CC[C@]4(C)[C@H]3CC[C@]12C (stereo partly shown) [7k27OHC, 7-keto,27-hydroxycholesterol]
Mouse 11β-hsd1
  IC50: 36 ± 2 nM
Human 11β-HSD1
  Metabolism by 11β-HSD1 in intact cells (in words): stereo-specifically converted to 7β27OHC
Human 11β-HSD1; intact HEK-293 cells, substrate concentration 1 μM
  Vapp cell intact: 0.52 ± 0.10 nmol·h^−1·mg total protein^−1 and 0.52 ± 0.10^a nmol·h^−1·mg total protein^−1
11β-HSD2 [1]
  IC50: 15 ± 1 nM

## C[C@@H](CO)CCC[C@@H](C)[C@H]1CC[C@H]2[C@@H]3[C@H](O)C=C4C[C@@H](O)CC[C@]4(C)[C@H]3CC[C@]12C [7α27OHC]
Mouse 11β-hsd1; 1 μM test substance, data not shown
  Rest enzyme activity of mouse 11β-hsd1: ~30%
Human 11β-HSD1
  Metabolism by 11β-HSD1 in intact cells (in words): neither 7α27OHC nor 7β27OHC was oxidized
11β-HSD2 [1]; not shown
  Inhibition of human 11β-HSD2 (in words): did not inhibit
11β-HSD2 [2]
  Metabolism by 11β-HSD2 in intact cells (in words): lack of 7α27OHC metabolism

## CC(CO)CCC[C@@H](C)[C@H]1CC[C@H]2[C@@H]3[C@@H](O)C=C4C[C@@H](O)CC[C@]4(C)[C@H]3CC[C@]12C (stereo partly drawn) [7β27OHC, 7β,27-dihydroxycholesterol]
Mouse 11β-hsd1
  IC50: 66 ± 11 nM
Human 11β-HSD1
  Metabolism by 11β-HSD1 in intact cells (in words): neither 7α27OHC nor 7β27OHC was oxidized
11β-HSD2 [1]
  IC50: 11 ± 2 nM
11β-HSD2 [2]
  Metabolism by 11β-HSD2 in intact cells (in words): exclusive oxidation of 7β27OHC to 7k27OHC
11β-HSD2 [2]; intact HEK-293 cells, substrate concentration 500 nM
  Vapp cell intact: 0.6 ± 0.1 nmol·h^−1·mg total protein^−1 and 0.6 ± 0.1^b nmol·h^−1·mg total protein^−1
